In ChEMBL document CHEMBL3046571, “QSAR of 2,4-diphenyl-1,3-oxazolines for ovicidal activity against the two-spotted spider mite Tetranychus urticae” (2006):

Test system: Tetranychus urticae
Experiment: Acaricidal activity against Tetranychus urticae (two-spotted spider mite) in compound treated kidney bean leaf assessed as mortality of egg at 24 degC measured after 1 week
Format: functional
Conditions: 168 h

Going from Fc1cccc(C2COC(c3c(F)cccc3F)=N2)c1 (stereo not given) to Cc1cccc(C2COC(c3c(F)cccc3F)=N2)c1 (stereo not given), the LC50 rises from 18.2 µM to 182 µM (10-fold).

CCCCCCCCCCc1ccc(C2COC(c3c(F)cccc3F)=N2)c(Cl)c1 (stereo not given) and CCCCCCCCCCCCc1ccc(C2COC(c3c(F)cccc3F)=N2)c(Cl)c1 (stereo not given) are within 1.5-fold of each other in LC50: 1.15 µM for the first, 1.07 µM for the second.

Going from CCCCCCCCCCCCCOc1ccc(C2COC(c3c(F)cccc3F)=N2)cc1 (stereo not given) to CCCCCCCCCCCCCCOc1ccc(C2COC(c3c(F)cccc3F)=N2)cc1 (stereo not given), the LC50 rises from 0.011 µM to 0.107 µM (9.7-fold).

Compared with Fc1cccc(F)c1C1=NC(c2ccc(Cl)cc2)CO1 (stereo not given), Oc1ccc(C2COC(c3c(F)cccc3F)=N2)cc1 (stereo not given) is 11000-fold higher in LC50: 0.017 µM for the first, 182 µM for the second.

Going from CCc1ccc(C2COC(c3c(F)cccc3F)=N2)c(Cl)c1 (stereo not given) to CCc1ccc(C2COC(c3c(F)cccc3F)=N2)c(F)c1 (stereo not given), the LC50 rises from 0.0155 µM to 1.62 µM (100-fold).

CCCCCCCCOc1ccc(C2COC(c3c(F)cccc3F)=N2)cc1 (stereo not given) and CCCCCCCCCCOc1ccc(C2COC(c3c(F)cccc3F)=N2)cc1 (stereo not given) are within 1.5-fold of each other in LC50: 0.00129 µM for the first, 0.0012 µM for the second.

Going from Fc1ccc(C2COC(c3c(F)cccc3F)=N2)c(Cl)c1 (stereo not given) to Fc1ccc(C2COC(c3c(F)cccc3F)=N2)c(F)c1 (stereo not given), the LC50 falls from 1.62 µM to 0.17 µM (9.5-fold).

Compared with CC(C)(C)c1ccc(C2COC(c3c(F)cccc3F)=N2)cc1 (stereo not given), Cc1ccc(C2COC(c3c(F)cccc3F)=N2)cc1 (stereo not given) is 1100-fold higher in LC50: 0.00159 µM for the first, 1.82 µM for the second.

Going from Fc1cc(Cl)ccc1C1COC(c2c(F)cccc2F)=N1 (stereo not given) to Cc1cc(Cl)ccc1C1COC(c2c(F)cccc2F)=N1 (stereo not given), the LC50 rises from 0.00162 µM to 1.62 µM (1000-fold).

Compared with CCCCOc1ccc(C2COC(c3c(F)cccc3F)=N2)cc1 (stereo not given), CCOc1ccc(C2COC(c3c(F)cccc3F)=N2)cc1 (stereo not given) is 11-fold higher in LC50: 0.00151 µM for the first, 0.0166 µM for the second.

Compared with Fc1cccc(F)c1C1=NC(c2ccc(Cl)c(Cl)c2)CO1 (stereo not given), Fc1cc(C2COC(c3c(F)cccc3F)=N2)ccc1Cl (stereo not given) is 9.3-fold lower in LC50: 1.51 µM for the first, 0.162 µM for the second.

CCCCCCc1ccc(C2COC(c3c(F)cccc3F)=N2)cc1F (stereo not given) and CCCCCCc1ccc(C2COC(c3c(F)cccc3F)=N2)cc1Cl (stereo not given) are within 1.5-fold of each other in LC50: 1.38 µM for the first, 1.32 µM for the second.

CCCCc1ccc(C2COC(c3c(F)cccc3F)=N2)cc1 (stereo not given) and CCCCCCc1ccc(C2COC(c3c(F)cccc3F)=N2)cc1 (stereo not given) are within 1.5-fold of each other in LC50: 0.00159 µM for the first, 0.00145 µM for the second.

Going from CCCCCCCCCCCCCCCc1ccc(C2COC(c3c(F)cccc3F)=N2)cc1 (stereo not given) to CCCCCCCCCCCCc1ccc(C2COC(c3c(F)cccc3F)=N2)cc1 (stereo not given), the LC50 falls from 0.0107 µM to 0.00118 µM (9.1-fold).

Compared with Fc1cccc(F)c1C1=NC(c2ccc(C(F)(F)F)cc2)CO1 (stereo not given), Fc1cccc(F)c1C1=NC(c2ccc(OC(F)(F)F)cc2)CO1 (stereo not given) is 10-fold lower in LC50: 0.151 µM for the first, 0.0144 µM for the second.

First: CC(C)c1ccc(C2COC(c3c(F)cccc3F)=N2)cc1 (stereo not given)
Second: CC(C)Cc1ccc(C2COC(c3c(F)cccc3F)=N2)cc1 (stereo not given)
The LC50 of the first is 10-fold higher: 0.0166 µM for the first, 0.00159 µM for the second.

CCOc1ccccc1C1COC(c2c(F)cccc2F)=N1 (stereo not given) and COc1ccccc1C1COC(c2c(F)cccc2F)=N1 (stereo not given) are within 1.5-fold of each other in LC50: 166 µM for the first, 174 µM for the second.

Compared with CCCOc1cc(C(C)C)ccc1C1COC(c2c(F)cccc2F)=N1 (stereo not given), CCOc1cc(C(C)C)ccc1C1COC(c2c(F)cccc2F)=N1 (stereo not given) is 110-fold higher in LC50: 0.00138 µM for the first, 0.145 µM for the second.

CCCCCCCc1ccc(C2COC(c3c(F)cccc3F)=N2)c(F)c1 (stereo not given) and CCCCCCCCc1ccc(C2COC(c3c(F)cccc3F)=N2)c(F)c1 (stereo not given) are within 1.5-fold of each other in LC50: 0.00132 µM for the first, 0.00129 µM for the second.

CCOc1cc(C(C)(C)C)ccc1C1COC(c2c(F)cccc2F)=N1 (stereo not given) [ETOXAZOLE] and CCCOc1cc(C(C)(C)C)ccc1C1COC(c2c(F)cccc2F)=N1 (stereo not given) are within 1.5-fold of each other in LC50: 0.0138 µM for the first, 0.0135 µM for the second.

CCOc1cc(Br)ccc1C1COC(c2c(F)cccc2F)=N1 (stereo not given) and CCOc1cc(Cl)ccc1C1COC(c2c(F)cccc2F)=N1 (stereo not given) are within 1.5-fold of each other in LC50: 1.32 µM for the first, 1.48 µM for the second.

Compared with CCCCOc1cc(C(C)(C)C)ccc1C1COC(c2c(F)cccc2F)=N1 (stereo not given), CCCCCCOc1cc(C(C)(C)C)ccc1C1COC(c2c(F)cccc2F)=N1 (stereo not given) is 9.3-fold higher in LC50: 0.129 µM for the first, 1.2 µM for the second.

COc1cc(Cl)ccc1C1COC(c2c(F)cccc2F)=N1 (stereo not given) and COc1cc(F)ccc1C1COC(c2c(F)cccc2F)=N1 (stereo not given) are within 1.5-fold of each other in LC50: 1.55 µM for the first, 1.62 µM for the second.

Going from CCCCCCc1ccc(C2COC(c3c(F)cccc3F)=N2)c(F)c1 (stereo not given) to CCCCCCCCCCc1ccc(C2COC(c3c(F)cccc3F)=N2)c(F)c1 (stereo not given), the LC50 rises from 0.00138 µM to 0.012 µM (8.7-fold).

Going from CCCCCc1ccc(C2COC(c3c(F)cccc3F)=N2)c(OCCC)c1 (stereo not given) to CCCCCc1ccc(C2COC(c3c(F)cccc3F)=N2)c(OCC)c1 (stereo not given), the LC50 falls from 0.0129 µM to 0.00135 µM (9.6-fold).

Compared with CCCCCCCCc1ccc(C2COC(c3c(F)cccc3F)=N2)c(OC)c1 (stereo not given), CCCCCCCCCc1ccc(C2COC(c3c(F)cccc3F)=N2)c(OC)c1 (stereo not given) is 10-fold lower in LC50: 0.126 µM for the first, 0.012 µM for the second.

Compared with Fc1ccc(C2COC(c3c(F)cccc3F)=N2)cc1 (stereo not given), Fc1cccc(F)c1C1=NC(c2ccc(Br)cc2)CO1 (stereo not given) is 120-fold lower in LC50: 1.82 µM for the first, 0.0148 µM for the second.

Going from CN(C)c1ccc(C2COC(c3c(F)cccc3F)=N2)cc1 (stereo not given) to COc1ccc(C2COC(c3c(F)cccc3F)=N2)cc1 (stereo not given), the LC50 falls from 166 µM to 17.4 µM (9.5-fold).

Compared with CCc1cccc(C2COC(c3c(F)cccc3F)=N2)c1 (stereo not given), CCOc1cccc(C2COC(c3c(F)cccc3F)=N2)c1 (stereo not given) is 10-fold lower in LC50: 174 µM for the first, 16.6 µM for the second.

First: CCCCOc1cc(F)ccc1C1COC(c2c(F)cccc2F)=N1 (stereo not given)
Second: CCOc1cc(F)ccc1C1COC(c2c(F)cccc2F)=N1 (stereo not given)
The LC50 of the first is 11-fold lower: 0.00145 µM for the first, 0.0155 µM for the second.

Compared with CS(=O)(=O)c1ccc(C2COC(c3c(F)cccc3F)=N2)cc1 (stereo not given), C[S+]([O-])c1ccc(C2COC(c3c(F)cccc3F)=N2)cc1 (stereo not given) is 9.5-fold lower in LC50: 1480 µM for the first, 155 µM for the second.

Going from CCCCCCCCCCc1ccc(C2COC(c3c(F)cccc3F)=N2)c(OC)c1 (stereo not given) to CCCCCCCCc1ccc(C2COC(c3c(F)cccc3F)=N2)c(C)c1 (stereo not given), the LC50 falls from 0.117 µM to 0.00129 µM (91-fold).

Going from Cc1ccccc1C1COC(c2c(F)cccc2F)=N1 (stereo not given) to Fc1cccc(F)c1C1=NC(c2ccccc2Cl)CO1 (stereo not given), the LC50 falls from 182 µM to 1.7 µM (110-fold).

Compared with Fc1cccc(F)c1C1=NC(c2ccc(OCC(F)(F)F)cc2)CO1 (stereo not given), CC(C)Oc1ccc(C2COC(c3c(F)cccc3F)=N2)cc1 (stereo not given) is 11-fold higher in LC50: 0.00141 µM for the first, 0.0158 µM for the second.

Fc1ccc(C2COC(c3c(F)cccc3F)=N2)cc1F (stereo not given) and Fc1ccc(C2COC(c3c(F)cccc3F)=N2)cc1Cl (stereo not given) are within 1.5-fold of each other in LC50: 1.7 µM for the first, 1.62 µM for the second.

CCc1ccccc1C1COC(c2c(F)cccc2F)=N1 (stereo not given) and Fc1ccccc1C1COC(c2c(F)cccc2F)=N1 (stereo not given) are within 1.5-fold of each other in LC50: 17.4 µM for the first, 18.2 µM for the second.

First: CCCCCCCCCCCCc1ccc(C2COC(c3c(F)cccc3F)=N2)c(F)c1 (stereo not given)
Second: CCCCCCCCc1ccc(C2COC(c3c(F)cccc3F)=N2)c(Cl)c1 (stereo not given)
The LC50 of the first is 91-fold higher: 0.112 µM for the first, 0.00123 µM for the second.

CCCCCCCCc1ccc(C2COC(c3c(F)cccc3F)=N2)cc1 (stereo not given) and CCCCCCCCCCc1ccc(C2COC(c3c(F)cccc3F)=N2)cc1 (stereo not given) are within 1.5-fold of each other in LC50: 0.00135 µM for the first, 0.00126 µM for the second.

CC(C)Sc1ccc(C2COC(c3c(F)cccc3F)=N2)cc1 (stereo not given) and CSc1ccc(C2COC(c3c(F)cccc3F)=N2)cc1 (stereo not given) are within 1.5-fold of each other in LC50: 1.51 µM for the first, 1.62 µM for the second.

Fc1cccc(F)c1C1=NC(c2ccccc2)CO1 (stereo not given) and Fc1cccc(F)c1C1=NC(c2cccc(Cl)c2)CO1 (stereo not given) are within 1.5-fold of each other in LC50: 19.5 µM for the first, 17 µM for the second.

COc1cccc(C2COC(c3c(F)cccc3F)=N2)c1 (stereo not given) and Cc1ccc(C2COC(c3c(F)cccc3F)=N2)cc1C (stereo not given) are the same in LC50: 17.4 µM for the first, 17.4 µM for the second.

Compared with COc1cc(C(C)(C)C)ccc1C1COC(c2c(F)cccc2F)=N1 (stereo not given), Cc1ccc(C2COC(c3c(F)cccc3F)=N2)c(C)c1 (stereo not given) is 12000-fold higher in LC50: 0.0144 µM for the first, 174 µM for the second.

Compared with Fc1cccc(F)c1C1=NC(c2ccc(Cl)cc2Cl)CO1 (stereo not given), CC(C)Cc1ccc(C2COC(c3c(F)cccc3F)=N2)c(Cl)c1 (stereo not given) is 100-fold lower in LC50: 0.151 µM for the first, 0.00145 µM for the second.

Compared with CCc1ccc(C2COC(c3c(F)cccc3F)=N2)cc1 (stereo not given), C[Si](C)(C)c1ccc(C2COC(c3c(F)cccc3F)=N2)cc1 (stereo not given) is 12-fold lower in LC50: 0.0174 µM for the first, 0.00151 µM for the second.

First: CCCCCCc1ccc(C2COC(c3c(F)cccc3F)=N2)c(Cl)c1 (stereo not given)
Second: CCCCCCCCCSc1ccc(C2COC(c3c(F)cccc3F)=N2)cc1 (stereo not given)
The LC50 of the first is 91-fold lower: 0.00132 µM for the first, 0.12 µM for the second.
